We go through six molecules from ChEMBL document CHEMBL1127250, “3,4-Di-o-()-camphanoyl-(+)-ciskhellactone and related compounds: A. new class of potent anti-HIV agents” (Bioorg Med Chem Lett, 1994).

Data set [1] is described as follows: Effective concentration against HIV-1 infection in peripheral blood mononuclear cells was determined. Type of data set: functional. The conditions noted are these: Homo sapiens.
In data set [2] the test system is H9. Nature of the data set: Compound was tested for inhibitory activity against HIV-1 replication in H9 lymphocyte cells; Activity range >32 but <160. In kind it is functional, cell-based. The conditions noted are these: Homo sapiens.
A further data set has as its system U-937. Nature of the data set: Effective concentration against HIV-1 infection in U-937 cell line was determined. Type of data set: functional, cell-based. The conditions noted are these: Homo sapiens.
A short description of data set [3]: Therapeutic index was determined; Value is >3,125 but < 15,625. The conditions noted are these: read-out: TI.
Data set [4] is described as follows: Therapeutic index was determined; Value is >222 but < 1,111. The conditions noted are these: read-out: TI.
The test system of data set [5] is H9. Nature of the data set: Effective concentration against HIV-1 replication in H9 lymphocyte cells was determined. In kind it is functional, cell-based. To be noted: Homo sapiens.
Data set [6] can be described thus: Therapeutic index was determined; Value is >78049 but < 390244. To be noted: read-out: TI.
The test system of data set [7] is H9. Nature of the data set: Compound was tested for inhibitory activity against HIV-1 replication in H9 lymphocyte cells; Activity >6.4 but < 32. In kind it is functional, cell-based. The conditions noted are these: Homo sapiens.
Data set [8] concerns H9. Nature of the data set: Effective concentration against HIV-1 replication in H9 lymphocyte cells was determined; Activity >6.4 but < 32. Type of data set: functional, cell-based. The conditions noted are these: Homo sapiens.
The nature of data set [9]: Therapeutic index was determined. The conditions noted are these: read-out: TI.
The test system of data set [10] is H9. The data set can be described thus: Compound was tested for inhibitory activity against HIV-1 replication in H9 lymphocyte cells. The conditions noted are these: Homo sapiens. In kind it is functional, cell-based.

SMILES strings stand for the structures. Some results are limits rather than exact numbers.

By EC50 is commonly meant the concentration needed to bring the measured effect to its halfway point. Low values mean higher potency in that assay, high ones lower potency in that assay. The IC50 is the point on the concentration scale where inhibition reaches its midpoint. As to `CC1(C)Oc2ccc3ccc(=O)oc3c2[C@@H](OC(=O)C23CCC(C)(C(=O)O2)C3(C)C)[C@H]1OC(=O)C12CCC(C)(C(=O)O1)C2(C)C` (stereo not given in full), the concentration giving a half-maximal response (EC50) in data set [1] was 0.029 µM; in the data set with U-937, 0.0021 µM; in the data set with H9 [5], 0.00041 µM. Moreover, in the data set on H9 [2], the IC50 is < 160 µM. Also, the selectivity ratio in data set [3] is > 3120; in [4] it was > 222; in [6] it was < 390000.
For the molecule `CC1(C)Oc2ccc3ccc(=O)oc3c2[C@H](OC(=O)C23CCC(C)(C(=O)O2)C3(C)C)[C@H]1OC(=O)C12CCC(C)(C(=O)O1)C2(C)C` (stereo not given in full), the IC50 with H9 [7] is < 32 µM. The EC50 in the data set with H9 [8] is < 32 µM. Also, the selectivity ratio in data set [9] is > 1.
Turning to `CC1(C)Oc2ccc3ccc(=O)oc3c2[C@H](OC(=O)C23CCC(C)(C(=O)O2)C3(C)C)[C@@H]1OC(=O)C12CCC(C)(C(=O)O1)C2(C)C` (stereo not given in full), the EC50 in the data set with H9 [5] was found to be 51 µM. Half-maximal inhibition in the data set with H9 [10] (IC50) was put at 1700 µM. The selectivity ratio in data set [9] was > 33.3.
The corresponding values for `CC1(C)Oc2ccc3ccc(=O)oc3c2[C@@H](OC(=O)C23CCC(C)(C(=O)O2)C3(C)C)[C@@H]1OC(=O)C12CCC(C)(C(=O)O1)C2(C)C` (stereo not given in full) are 32 µM, > 32 µM and > 1.
On to `CC(=O)O[C@@H]1[C@H](OC(=O)CC(C)C)c2c(ccc3ccc(=O)oc23)OC1(C)C` [SUKSDORFIN], for which the EC50 in the data set on H9 [5] stood at 1.3 µM. Also, in the data set with H9 [10], the half-inhibitory concentration (IC50) is > 52 µM. Further, the selectivity ratio in [9] is > 40.
In the case of `Cc1cn([C@H]2C[C@H](N=[N+]=[N-])[C@@H](CO)O2)c(=O)[nH]c1=O` [ZIDOVUDINE], the 50% effective concentration (EC50) in the data set on H9 [5] stood at 0.15 µM. This lies in the sub-micromolar range.
